These are literature values, as cited in patent US20250090476A1, “PHARMACEUTICAL COMPOSITION AND BREXPIPRAZOLE ORALLY SOLUABLE FILM” (WISDOM PHARMACEUTICAL CO., LTD., priority 2022, published 2025).

Each structure is given as a SMILES string.

Take `O=c1ccc2ccc(OCCCCN3CCN(c4cccc5sccc45)CC3)cc2[nH]1` [Brexpiprazole]: the solubility result is reported as “low”.
